Results: patent EP1257544B1, “PIPERAZINE AND PIPERIDINE DERIVATIVES FOR TREATMENT OR PREVENTION OF NEURONAL DAMAGE” (VERTEX PHARMACEUTICALS INCORPORATED, priority 2000, dated 2001)
Where a name gives a salt, the structure may show the parent alone.

System: Dissociated VM cells
Assay: Neuroprotection Assay (NMDA-induced neuroexcitotoxic injury, high affinity 3H-dopamine uptake)
Format: cell-based, Sprague-Dawley rat
Details: embryonic day 15 rat ventral mesencephalic cultures, NMDA (100-400 µM) for 20 hours
Excerpt: The neuroprotective activity of the compounds of this invention may be assayed using rat embryo ventral mesencephalic cells in culture which are subsequently exposed to the glutamate receptor agonist NMDA. This assay is described in detail in the example section.
The ventral mesencephalic region was dissected out of embryonic day 15 Sprague-Dawley rat embryos (Harlan), dissociated into single cell suspension by a combination of trypsinization and trituration (Costantini et al., Neurobiol Dis., pp. 97-106 (1998). Dissociated VM cells were plated into poly-L-ornithine-coated 96-well plates at a density of 85,000 cells/well in 100 uL of DMEM supplemented with 18% heat-inactivated horse serum, 0.24% glucose, 2 mM glutamine and 50 u/ml pernicillin/streptomycin and incubated in a 5% CO2 incubator. After one day in culture (DIV1), the medium was replaced with 100 µL of a defined medium (DMEM supplemented with 1x N2 cocktail (Gibco-BRL), 0.12% glucose, 2 mM glutamine, and 50 units/ml penicillin/streptomycin) containing DMSO or various concentrations of the compounds of this invention. On DIV5, neuroexcitotoxic injury was induced by the addition of various concentrations of the glutamate receptor agonist NMDA (100-400 µM). Cultures were incubated with the neurotoxin for 20 hours and the effects of neurophilin compounds were assessed using high affinity ^3H-dopamine uptake according to a procedure published by Park and Mytilineou [Brain Res., 599, pp. 83-97 (1992)].

SMILES	EC50 [nM]
CCN1CCCC[C@H]1C(=O)N1CCC(=Cc2ccc(F)cc2)CC1 [Compound 84, ((2S)-1-Ethylpiperidin-2-yl)-[4-(4-fluorobenzylidene)piperidin-1-yl]-methanone hydrochloride]	< 100
O=C([C@@H]1CCCN1CCc1ccccc1)N1CCC(Cc2ccccc2)CC1 [Compound 57, (4-Benzylpiperidin-1-yl)-((2S)-1-phenethylpyrrolidin-2-yl)-methanone]	100 to 500
CCN1CCCC[C@@H]1C(=O)N1CCN(C(c2ccccc2)c2ccccc2)CC1 [Compound 15, 1-[4-(1,1-Diphenylmethyl)piperazin-1-yl]-1-((R)-1-ethylpiperidin-2-yl)methanone]	< 100
CCN1CCCC[C@H]1C(=O)N1CCN(CCc2ccccc2)CC1 [Compound 74, ((2S)-1-Ethylpiperidin-2-yl)-(4-phenethylpiperazin-1-yl)-methanone dihydrochloride]	> 500
CCN1CCC(C(=O)N2CCC(Cc3ccc(F)cc3)CC2)CC1 [Compound 270]	100 to 500
O=C([C@@H]1CCCCN1Cc1ccc(F)cc1)N1CCN(C(c2ccc(F)cc2)c2ccc(F)cc2)CC1 [Compound 62, {4-[Bis-(4-fluorophenyl)methyl]-pipezazin-1-yl}-[(2S)-1-(4-fluorobenzyl)-piperidin-2-yl]-methanone]	100 to 500
O=C([C@@H]1CCCN1Cc1ccccc1)N1CCC(Cc2ccccc2)CC1 [Compound 52, (4-Benzylpiperidin-1-yl)-((2S)-1-benzylpyrrolidin-2-yl)-methanone hydrochloride]	< 100
CCN1CCCC[C@H]1C(=O)N1CCN(Cc2cccnc2)CC1 [Compound 36, ((2S)-1-Ethylpiperidin-2-yl)-(4-pyridin-3-ylmethylpiperazin-1-yl)-methanone trihydrochloride]	> 500
CCN1CCCC[C@H]1C(=O)N1CCN(S(=O)(=O)c2ccccc2)CC1 [Compound 80, (4-Benzenesulfonylpiperazin-1-yl)-((2S)-1-ethylpiperidin-2-yl)-methanone hydrochloride]	> 500
O=C([C@@H]1CCCN1Cc1ccccc1)N1CCC(=Cc2ccc(F)cc2)CC1 [Compound 85, ((2S)-1-Benzylpyrrolidin-2-yl)-[4-(4-fluorobenzylidene)piperidin-1-yl] methanone hydrochloride]	< 100
CC(C)CN1CCCC[C@H]1C(=O)N1CCN(C(c2ccc(F)cc2)c2ccc(F)cc2)CC1 [Compound 66, [4-[Bis-(4-fluorophenyl)methyl]-piperazin-1-yl]-((2S)-1-(2-methylpropyl)-piperidin-2-yl)-methanone]	> 500
CCN1CCC[C@H]1C(=O)N1CCC(Cc2ccccc2)CC1 [Compound 53, (4-Benzylpiperidin-1-yl)-((2S)-1-ethylpyrrolidin-2-yl)-methanone hydrochloride]	100 to 500
O=C([C@@H]1CCCN1Cc1ccccc1)N1CCN(Cc2ccc(F)cc2)CC1 [Compound 87, ((2S)-1-Benzyl-pyrrolidin-2-yl)-[4-(4-fluoro-benzyl)-piperazin-1-yl] methanone]	> 500
COc1ccc(CN2CCCC[C@H]2C(=O)N2CCN(C(c3ccccc3)c3ccccc3)CC2)cc1 [Compound 60, (4-Benzhydrylpiperazin-1-yl)-[(2S)-1-(4-methoxybenzyl)-piperidin-2-yl]-methanone dihydrochloride]	< 100
O=C([C@@H]1CCCCN1Cc1ccc(F)cc1)N1CCN(C(c2ccccc2)c2ccccc2)CC1 [Compound 21, 1-[4-(1,1-Diphenyl-methyl)-piperazin-1-yl]-1-[(S)-1-(4-fluoro-benzyl)-piperidin-2-yl]-methanone]	< 100
CO[C@@H]1C[C@@H](C(=O)N2CCC(Cc3ccccc3)CC2)N(Cc2ccccc2)C1 [Compound 153, ((2S,4R)-1-Benzyl-4-methoxypyrrolidin-2-yl)-(4-benzylpiperdin-1-yl)-methanone]	> 500
CN1CCC(C(=O)N2CCC(Cc3ccccc3)CC2)CC1 [Compound 202]	100 to 500
CCN1CCCC[C@H]1C(=O)N1CCN(Cc2ccc(Cl)c(Cl)c2)CC1 [Compound 69, [4-(3,4-Dichlorobenzyl)-piperazin-1-yl]-((2S)-1-ethylpiperidin-2-yl)-methanone dihydrochloride]	< 100
CCN1CCCC[C@H]1C(=O)N1CCC[C@H]1C(c1ccccc1)c1ccccc1 [Compound 27, 1-[(S)-2-(1,1-Diphenylmethyl)-pyrrolidin-1-yl]-1-((S)-1-ethyl-piperidin-2-yl)-methanone]	> 500
O=C([C@@H]1CCCN1CCCc1ccccc1)N1CCC(Cc2ccccc2)CC1 [Compound 59, (4-Benzylpiperidin-1-yl)-[(2S)-1-(3-phenylpropyl) - pyrrolidin-2-yl]-methanone hydrochloride]	100 to 500
CCN1CCCC[C@H]1C(=O)N1CCN(Cc2ccc(F)cc2)CC1 [Compound 76, ((2S)-1-Ethylpiperidin-2-yl)-[4-(4-fluorobenzyl)-piperazin-1-yl] methanone]	100 to 500
O=C(C1CCN(C/C=C/c2ccccc2)CC1)N1CCN(c2ccc(F)cc2)CC1 [Compound 266]	100 to 500
CN1CCCC(C(=O)N2CCC(Cc3ccc(F)cc3)CC2)C1 (centres unmarked) [Compound 90, [4-(4-Fluorobenzyl)piperidin-1-yl]-(1-methylpiperidin-3-yl) methanone hydrochloride]	< 100
O=C(C1CC2CCN1CC2)N1CCC(Cc2ccc(F)cc2)CC1 (centres unmarked) [Compound 88, (1-Aza-bicyclo[2.2.2]oct-2-yl)-[4-(4-fluoro-benzyl)-piperidin-1-yl] methanone hydrochloride]	100 to 500
CCN1CCCC[C@@H]1C(=O)N1CCN(C(c2ccc(F)cc2)c2ccc(F)cc2)CC1 [Compound 40, {4-[Bis-(4-fluorophenyl)methyl]-piperazin-1-yl}-((2R)-1-ethylpiperidin-2-yl)-methanone]	> 500
CC(C)=CCN1CCC(C(=O)N2CCN(c3ccc(F)cc3)CC2)CC1 [Compound 260]	< 100
CCN1CCCC[C@H]1C(=O)N1CCN(S(=O)(=O)c2ccc(F)cc2)CC1 [Compound 81, ((2S)-1-Ethylpiperidin-2-yl)-[4-(4-fluorobenzenesulfonyl)-piperazin-1-yl]-methanone hydrochloride]	> 500
CCN1CCCC[C@H]1C(=O)N1CCC(C(O)c2ccc(F)cc2)CC1 (stereo partly drawn) [Compound 46, ((2S)-1-Ethylpiperidin-2-yl)-{4-[(4-fluorophenyl)hydroxymethyl]-piperidin-1-yl}-methanone]	> 500
O=C([C@@H]1CCCN1Cc1ccccc1)N1CCC(Cc2ccc(F)cc2)CC1 [Compound 49, ((2S)-1-Benzylpyrrolidin-2-yl)-[4-(4-fluorobenzyl)-piperidin-1-yl]-methanone hydrochloride]	< 100
